Reference: patent US10865216B2, “Tricyclic Gyrase inhibitors” (MERCK SHARP & DOHME CORP., priority 2012, dated 2020)
≈ marks a conversion by molar mass, not a printed value.

Key:
S. aureus ATCC 13709 = assay: MIC, S. aureus ATCC 13709; format: cell-based; conditions: S. aureus; Alamar Blue read after overnight incubation at 35° C.
E. coli ATCC 25922 = assay: MIC, E. coli ATCC 25922; format: cell-based; conditions: E. coli; Alamar Blue read after overnight incubation at 35° C.

Compound | MIC Sa (S. aureus ATCC 13709) [µg/mL] | MIC Ec (E. coli ATCC 25922) [µg/mL]
CNc1cc(F)cc2c1[nH]c1nc(Oc3cncc(C(N)=O)c3)nc(N3CC4C(N)C4C3)c12 (centres unmarked) [Compound 4.237] | ≤0.5 | 2 (≈ 4.46 µM)
CNc1cc(F)cc2c1[nH]c1nc(Oc3cnc(C4CC4)nc3)nc(N3CC4CC(N)C4C3)c12 (centres unmarked) [Compound 4.240] | ≤0.5 | ≤0.5
CNc1cc(F)cc2c1[nH]c1nc(Oc3cnc(C4CC4)nc3)nc(N3CC4C(N)C4C3)c12 (centres unmarked) [Compound 4.241] | ≤0.5 | ≤0.5
CNc1cc(F)cc2c1[nH]c1nc(Oc3cnc(C4CC4)nc3)nc(N3CC4(CCC4N)C3)c12 (centres unmarked) [Compound 4.244] | ≤0.5 | ≤0.5
CNc1cc(F)cc2c1[nH]c1nc(Oc3cnc(C4CC4)nc3)nc(N3CC4CC4(CN)C3)c12 (centres unmarked) [Compound 4.246] | ≤0.5 | ≤0.5
CNc1cc(F)cc2c1[nH]c1nc(Oc3cnc(C4CC4)nc3)nc(N3CC4C(CN)C4C3)c12 (centres unmarked) [Compound 4.249] | ≤0.5 | ≤0.5
CNc1cc(F)cc2c1[nH]c1nc(Oc3cnc(C4CC4)nc3)nc(N3CC4CCNC4C3)c12 (centres unmarked) [Compound 4.250] | ≤0.5 | ≤0.5
CNc1cc(F)cc2c1[nH]c1nc(Oc3cnc(C4CC4)nc3)nc(N3CC4CCC(N)C4C3)c12 (centres unmarked) [Compound 4.251] | ≤0.5 | ≤0.5
CNc1cc(F)cc2c1[nH]c1nc(Oc3cnc(C4CC4)nc3)nc(C3CCC4(CC3)NC(=O)NC4=O)c12 (centres unmarked) [Compound 4.252] | >16 | >16
CNc1cc(F)cc2c1[nH]c1nc(Oc3cnc(C4CC4)nc3)nc(N3CC4CCC(CN)C4C3)c12 (centres unmarked) [Compound 4.253] | ≤0.5 | ≤0.5
CCc1ncc(Oc2nc(N3CC4C(N)C4C3)c3c(n2)[nH]c2c(NC)cc(F)cc23)cn1 (centres unmarked) [Compound 4.258] | ≤0.5 | ≤0.5
CCc1ncc(Oc2nc(N3CC(N)C4(CC4)C3)c3c(n2)[nH]c2c(NC)cc(F)cc23)cn1 (centres unmarked) [Compound 4.259] | ≤0.5 | ≤0.5
CCc1ncc(Oc2nc(N3CC4CC4(CN)C3)c3c(n2)[nH]c2c(NC)cc(F)cc23)cn1 (centres unmarked) [Compound 4.261] | ≤0.5 | 1 (≈ 2.23 µM)
CCc1ncc(Oc2nc(N3CCC(N)C3)c3c(n2)[nH]c2c(NC)cc(F)cc23)cn1 (centres unmarked) [Compound 4.262] | ≤0.5 | ≤0.5
CCc1ncc(Oc2nc(N3CCC4(CC4N)C3)c3c(n2)[nH]c2c(NC)cc(F)cc23)cn1 (centres unmarked) [Compound 4.263] | ≤0.5 | ≤0.5
CNc1cc(F)cc2c1[nH]c1nc(Oc3ccc4c(c3)C(=O)NC4)nc(N3CC(N)C4(CC4)C3)c12 (centres unmarked) [Compound 4.265] | ≤0.5 | 4 (≈ 8.45 µM)
CNc1cc(F)cc2c1[nH]c1nc(Oc3ccc4c(c3)C(=O)NC4)nc(N3CC4CCNC4C3)c12 (centres unmarked) [Compound 4.269] | ≤0.5 | 4 (≈ 8.45 µM)
CNc1cc(F)cc2c1[nH]c1nc(Oc3ccc4c(c3)C(=O)NC4)nc(N3CC4(CCC4N)C3)c12 (centres unmarked) [Compound 4.270] | ≤0.5 | 2 (≈ 4.22 µM)
CNc1cc(F)cc2c1[nH]c1nc(Oc3cncc(Cl)c3)nc(N3CC4C(N)C4C3)c12 (centres unmarked) [Compound 4.272] | ≤0.5 | ≤0.5
CNc1cc(F)cc2c1[nH]c1nc(Oc3cncc(Cl)c3)nc(N3CC(N)C4(CC4)C3)c12 (centres unmarked) [Compound 4.273] | ≤0.5 | 2 (≈ 4.41 µM)

Compound | MIC Sa (S. aureus ATCC 13709) [µg/mL] | MIC Ec (E. coli ATCC 25922) [µg/mL]
CNc1cc(F)cc2c1[nH]c1nc(Oc3cncc(Cl)c3)nc(N3CC(N)C3)c12 [Compound 4.277] | ≤0.5 | ≤0.5
CNc1cc(F)cc2c1[nH]c1nc(Oc3cnc(C4CCC4)nc3)nc(N3CC4C(N)C4C3)c12 (centres unmarked) [Compound 4.286] | ≤0.5 | ≤0.5
CNc1cc(F)cc2c1[nH]c1nc(Oc3cnc(C4CCC4)nc3)nc(N3CC(N)C4(CC4)C3)c12 (centres unmarked) [Compound 4.287] | ≤0.5 | ≤0.5
CNc1cc(F)cc2c1[nH]c1nc(Oc3ccc4c(N)nc(C)nc4c3)nc(N3CC4C(N)C4C3)c12 (centres unmarked) [Compound 4.288] | 4 (≈ 8.24 µM) | >16
CNc1cc(F)cc2c1[nH]c1nc(Oc3cnc4ccoc4c3)nc(N3CC4CC(N)C4C3)c12 (centres unmarked) [Compound 4.290] | ≤0.5 | ≤0.5
CNc1cc(F)cc2c1[nH]c1nc(Oc3cnc4ccoc4c3)nc(N3CC4C(N)C4C3)c12 (centres unmarked) [Compound 4.291] | ≤0.5 | ≤0.5
CNc1cc(F)cc2c1[nH]c1nc(Oc3cnc4ccoc4c3)nc(N3CC4CCC(N)C4C3)c12 (centres unmarked) [Compound 4.293] | ≤0.5 | 1 (≈ 2.11 µM)
CNc1cc(F)cc2c1[nH]c1nc(Oc3cnc4c(c3)OCCO4)nc(N3CC4CC(N)C4C3)c12 (centres unmarked) [Compound 4.294] | ≤0.5 | 1 (≈ 2.09 µM)
CNc1cc(F)cc2c1[nH]c1nc(Oc3cnc(N4CCC4)nc3)nc(N3CC4C(N)C4C3)c12 (centres unmarked) [Compound 4.296] | ≤0.5 | ≤0.5
CNc1cc(F)cc2c1[nH]c1nc(Oc3cnc(N4CC(O)C4)nc3)nc(N3CC4C(N)C4C3)c12 (centres unmarked) [Compound 4.298] | ≤0.5 | 2 (≈ 4.19 µM)
CNc1cc(F)cc2c1[nH]c1nc(Oc3ccc4c(c3)C(=O)NCC4)nc(N3CC4C(N)C4C3)c12 (centres unmarked) [Compound 4.301] | ≤0.5 | 1 (≈ 2.11 µM)
CNc1cc(F)cc2c1[nH]c1nc(Oc3cncc(C)c3)nc(N3CC4CC(N)C4C3)c12 (centres unmarked) [Compound 4.303] | ≤0.5 | ≤0.5
CNc1cc(F)cc2c1[nH]c1nc(Oc3ccc(C(C)=O)nc3)nc(N3CC4CCNC4C3)c12 (centres unmarked) [Compound 4.309] | ≤0.5 | ≤0.5
CNc1cc(F)cc2c1[nH]c1nc(Oc3cnc4[nH]cnc4c3)nc(N3CC4CC(N)C4C3)c12 (centres unmarked) [Compound 4.310] | 8 (≈ 17.4 µM) | >16
CNc1cc(F)cc2c1[nH]c1nc(Oc3cnc4[nH]cnc4c3)nc(N3CC4C(N)C4C3)c12 (centres unmarked) [Compound 4.311] | 4 (≈ 8.98 µM) | >16
CNc1cc(F)cc2c1[nH]c1nc(Oc3cnc4[nH]cnc4c3)nc(N3CC4CCNC4C3)c12 (centres unmarked) [Compound 4.312] | 16 (≈ 34.8 µM) | >16
CNc1cc(F)cc2c1[nH]c1nc(Oc3cnc(C(C)(C)C)nc3)nc(N3CC4C(N)C4C3)c12 (centres unmarked) [Compound 4.314] | ≤0.5 | ≤0.5
CNc1cc(F)cc2c1[nH]c1nc(Oc3cnc(C(C)(C)C)nc3)nc(N3CC4CC(N)C4C3)c12 (centres unmarked) [Compound 4.316] | ≤0.5 | 1 (≈ 2.1 µM)
CNc1cc(F)cc2c1[nH]c1nc(Oc3ccc4ncsc4c3)nc(N3CC4CCC(N)C4C3)c12 (centres unmarked) [Compound 4.320] | ≤0.5 | 1 (≈ 2.04 µM)
CNc1cc(F)cc2c1[nH]c1nc(Oc3ccc4sc(C)nc4c3)nc(N3CC4CC(N)CC4C3)c12 (centres unmarked) [Compound 4.321] | ≤0.5 | 1 (≈ 1.99 µM)
